Source: BindingDB's records for doi:10.1016/s0960-894x(00)00194-3 (The Oxford Centre For Molecular Sciences, 2000)
Where a SMILES comes first, the peptide text is derived from it.

Experiment: Peptide was tested for inhibition constant for competitive inhibition using Suc-AAPA-pNa and Pancreatic elastase

| Ki [µM] | SMILES |
| --- | --- |
| 1100 | CSCC[C@H](N)C(=O)N[C@@H](Cc1ccccc1)C(=O)N[C@@H](CC(C)C)C(=O)N[C@@H](C)C(=O)O [(S)-2-{(S)-2-[(S)-2-((S)-2-Amino-4-methylsulfanyl-butyrylamino)-3-phenyl-propionylamino]-4-methyl-pentanoylamino}-propionic acid] (H-MFLA-OH) |
| 100 | CC[C@H](C)[C@H](NC(=O)[C@H](CO)NC(=O)[C@H](CCSC)NC(=O)[C@@H]1CCCN1C(=O)[C@@H](NC(=O)[C@H](C)NC(=O)[C@H](CCC(=O)O)NC(=O)[C@H](CC(C)C)NC(=O)[C@H](Cc1ccccc1)NC(=O)[C@@H](N)CCSC)[C@@H](C)CC)C(=O)O |
| 5800 | CC[C@H](C)[C@H](NC(=O)[C@H](C)NC(=O)[C@H](CCC(=O)O)NC(=O)[C@H](CC(C)C)NC(=O)[C@H](Cc1ccccc1)NC(=O)[C@@H](N)CCSC)C(=O)N1CCC[C@H]1C(=O)N[C@@H](CCSC)C(=O)N[C@@H](CO)C(=O)O |
